This assay has as its system HIV-IIIb. Briefly: Antiviral assay in MT4 cells. It counts as cell-based. As to conditions: Human immunodeficiency virus 1, MT4, 120 h; MT-4 cells mixed with HIV-IIIb at m.o.i. 0.003; 5 days at 37° C.; CellTiter-Glo luminescence; 50% decrease in signal, a measure of HIV-1 replication. The procedure, abridged: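 MT-4 cells were infected with HIV-IIIb at m.o.i. 0.003 for 1 hour, then added to 3-fold serially diluted compound (10 concentrations, quadruplicate) in medium with 10% FBS. After 5 days at 37° C, cell viability was read by CellTiter-Glo chemiluminescence.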

pEC50: −log10 of the molar value.

Take `Cn1nc(NS(C)(=O)=O)c2cccc(-c3cc4sc(N5CCN(C(=O)C(C)(C)N)CC5)nc4nc3[C@H](Cc3cc(F)cc(F)c3)NC(=O)Cn3nc(C(F)(F)F)c4c3C(F)(F)[C@@H]3C[C@H]43)c21` [Example 83, N—((S)-1-(2-(4-(2-amino-2-methylpropanoyl)piperazin-1-yl)-6-(1-methyl-3-(methylsulfonamido)-1H-indazol-7-yl)thiazolo[4,5-b]pyridin-5-yl)-2-(3,5-difluorophenyl)ethyl)-2-((3bS,4aR)-5,5-difluoro-3-(trifluoromethyl)-3b,4,4a,5-tetrahydro-1H-cyclopropa[3,4]cyclopenta[1,2-c]pyrazol-1-yl)acetamide]: the pEC50 is 7.28.

In turn, `Cn1nc(NS(C)(=O)=O)c2cccc(-c3cc4sc(N5CCC6(CC5)CNC6=O)nc4nc3[C@H](Cc3cc(F)cc(F)c3)NC(=O)Cn3nc(C(F)(F)F)c4c3C(F)(F)[C@@H]3C[C@H]43)c21` [Example 84, 2-((3bS,4aR)-5,5-difluoro-3-(trifluoromethyl)-3b,4,4a,5-tetrahydro-1H-cyclopropa[3,4]cyclopenta[1,2-c]pyrazol-1-yl)-N—((S)-2-(3,5-difluorophenyl)-1-(6-(1-methyl-3-(methylsulfonamido)-1H-indazol-7-yl)-2-(1-oxo-2,7-diazaspiro[3.5]nonan-7-yl)thiazolo[4,5-b]pyridin-5-yl)ethyl)acetamide] gave a pEC50 of 8.00.

Take `Cn1nc(NS(C)(=O)=O)c2cccc(-c3cc4sc(N5CC6(CCN6)C5)nc4nc3[C@H](Cc3cc(F)cc(F)c3)NC(=O)Cn3nc(C(F)(F)F)c4c3C(F)(F)[C@@H]3C[C@H]43)c21` [Example 85, 2-((3bS,4aR)-5,5-difluoro-3-(trifluoromethyl)-3b,4,4a,5-tetrahydro-1H-cyclopropa[3,4]cyclopenta[1,2-c]pyrazol-1-yl)-N—((S)-2-(3,5-difluorophenyl)-1-(6-(1-methyl-3-(methylsulfonamido)-1H-indazol-7-yl)-2-(1,6-diazaspiro[3.3]heptan-6-yl)thiazolo[4,5-b]pyridin-5-yl)ethyl)acetamide]: the pEC50 is 7.66.

`Cn1nc(NS(C)(=O)=O)c2cccc(-c3cc4sc(N5CCNCC5)nc4nc3[C@H](Cc3cc(F)cc(F)c3)NC(=O)Cn3nc(C(F)(F)F)c4c3C(F)(F)[C@@H]3C[C@H]43)c21` [Example 86, 2-((3bS,4aR)-5,5-difluoro-3-(trifluoromethyl)-3b,4,4a,5-tetrahydro-1H-cyclopropa[3,4]cyclopenta[1,2-c]pyrazol-1-yl)-N—((S)-2-(3,5-difluorophenyl)-1-(6-(1-methyl-3-(methylsulfonamido)-1H-indazol-7-yl)-2-(piperazin-1-yl)thiazolo[4,5-b]pyridin-5-yl)ethyl)acetamide] gave a pEC50 of 7.82.

The molecule `Cn1nc(NS(C)(=O)=O)c2cccc(-c3cc4sc(N5CC6(CNC6)C5)nc4nc3[C@H](Cc3cc(F)cc(F)c3)NC(=O)Cn3nc(C(F)(F)F)c4c3C(F)(F)[C@@H]3C[C@H]43)c21` [Example 87, 2-((3bS,4aR)-5,5-difluoro-3-(trifluoromethyl)-3b,4,4a,5-tetrahydro-1H-cyclopropa[3,4]cyclopenta[1,2-c]pyrazol-1-yl)-N—((S)-2-(3,5-difluorophenyl)-1-(6-(1-methyl-3-(methylsulfonamido)-1H-indazol-7-yl)-2-(2,6-diazaspiro[3.3]heptan-2-yl)thiazolo[4,5-b]pyridin-5-yl)ethyl)acetamide] gave a pEC50 of 6.57.

Molecule `C[C@H]1CN(c2nc3nc([C@H](Cc4cc(F)cc(F)c4)NC(=O)Cn4nc(C(F)(F)F)c5c4C(F)(F)[C@@H]4C[C@H]54)c(-c4cccc5c(NS(C)(=O)=O)nn(C)c45)cc3s2)CCN1` [Example 88, 2-((3bS,4aR)-5,5-difluoro-3-(trifluoromethyl)-3b,4,4a,5-tetrahydro-1H-cyclopropa[3,4]cyclopenta[1,2-c]pyrazol-1-yl)-N—((S)-2-(3,5-difluorophenyl)-1-(6-(1-methyl-3-(methylsulfonamido)-1H-indazol-7-yl)-2-((S)-3-methylpiperazin-1-yl)thiazolo[4,5-b]pyridin-5-yl)ethyl)acetamide] showed a pEC50 of 7.99.

Turning to `C[C@@H]1CN(c2nc3nc([C@H](Cc4cc(F)cc(F)c4)NC(=O)Cn4nc(C(F)(F)F)c5c4C(F)(F)[C@@H]4C[C@H]54)c(-c4cccc5c(NS(C)(=O)=O)nn(C)c45)cc3s2)CCN1` [Example 89, 2-((3bS,4aR)-5,5-difluoro-3-(trifluoromethyl)-3b,4,4a,5-tetrahydro-1H-cyclopropa[3,4]cyclopenta[1,2-c]pyrazol-1-yl)-N—((S)-2-(3,5-difluorophenyl)-1-(6-(1-methyl-3-(methylsulfonamido)-1H-indazol-7-yl)-2-((R)-3-methylpiperazin-1-yl)thiazolo[4,5-b]pyridin-5-yl)ethyl)acetamide], the pEC50 is 7.95.

In turn, `Cn1nc(NS(C)(=O)=O)c2cccc(-c3cc4sc(N5CCC6(CC5)CNC6)nc4nc3[C@H](Cc3cc(F)cc(F)c3)NC(=O)Cn3nc(C(F)(F)F)c4c3C(F)(F)[C@@H]3C[C@H]43)c21` [Example 90, 2-((3bS,4aR)-5,5-difluoro-3-(trifluoromethyl)-3b,4,4a,5-tetrahydro-1H-cyclopropa[3,4]cyclopenta[1,2-c]pyrazol-1-yl)-N—((S)-2-(3,5-difluorophenyl)-1-(6-(1-methyl-3-(methylsulfonamido)-1H-indazol-7-yl)-2-(2,7-diazaspiro[3.5]nonan-7-yl)thiazolo[4,5-b]pyridin-5-yl)ethyl)acetamide] gave a pEC50 of 6.37.

`Cn1nc(NS(C)(=O)=O)c2cccc(-c3cc4sc(N5CC6(CCNCC6)C5)nc4nc3[C@H](Cc3cc(F)cc(F)c3)NC(=O)Cn3nc(C(F)(F)F)c4c3C(F)(F)[C@@H]3C[C@H]43)c21` [Example 91, 2-((3bS,4aR)-5,5-difluoro-3-(trifluoromethyl)-3b,4,4a,5-tetrahydro-1H-cyclopropa[3,4]cyclopenta[1,2-c]pyrazol-1-yl)-N—((S)-2-(3,5-difluorophenyl)-1-(6-(1-methyl-3-(methylsulfonamido)-1H-indazol-7-yl)-2-(2,7-diazaspiro[3.5]nonan-2-yl)thiazolo[4,5-b]pyridin-5-yl)ethyl)acetamide]: the pEC50 is 7.19.

As for `Cn1nc(NS(C)(=O)=O)c2cccc(-c3cc4[nH]c(C5CC5)nc4nc3[C@H](Cc3cc(F)cc(F)c3)NC(=O)Cn3nc(C(F)(F)F)c4c3C(F)(F)[C@@H]3C[C@H]43)c21` [Example 92, N—((S)-1-(2-cyclopropyl-6-(1-methyl-3-(methylsulfonamido)-1H-indazol-7-yl)-1H-imidazo[4,5-b]pyridin-5-yl)-2-(3,5-difluorophenyl)ethyl)-2-((3bS,4aR)-5,5-difluoro-3-(trifluoromethyl)-3b,4,4a,5-tetrahydro-1H-cyclopropa[3,4]cyclopenta[1,2-c]pyrazol-1-yl)acetamide], the pEC50 was 7.83.

In the case of `Cn1nc(NS(C)(=O)=O)c2cccc(-c3cc4[nH]c(C5CC5)nc4nc3[C@H](Cc3cc(F)cc(F)c3)NC(=O)Cn3nc(C(F)F)c4c3C(F)(F)[C@@H]3C[C@H]43)c21` [Example 93, N—((S)-1-(2-cyclopropyl-6-(1-methyl-3-(methylsulfonamido)-1H-indazol-7-yl)-1H-imidazo[4,5-b]pyridin-5-yl)-2-(3,5-difluorophenyl)ethyl)-2-((3bS,4aR)-3-(difluoromethyl)-5,5-difluoro-3b,4,4a,5-tetrahydro-1H-cyclopropa[3,4]cyclopenta[1,2-c]pyrazol-1-yl)acetamide], the pEC50 was 7.95.

In turn, `Cn1nc(NS(C)(=O)=O)c2cccc(-c3cc4[nH]c(-c5ccccc5)nc4nc3[C@H](Cc3cc(F)cc(F)c3)NC(=O)Cn3nc(C(F)(F)F)c4c3C(F)(F)[C@@H]3C[C@H]43)c21` [Example 94, 2-((3bS,4aR)-5,5-difluoro-3-(trifluoromethyl)-3b,4,4a,5-tetrahydro-1H-cyclopropa[3,4]cyclopenta[1,2-c]pyrazol-1-yl)-N—((S)-2-(3,5-difluorophenyl)-1-(6-(1-methyl-3-(methylsulfonamido)-1H-indazol-7-yl)-2-phenyl-1H-imidazo[4,5-b]pyridin-5-yl)ethyl)acetamide] gave a pEC50 of 7.09.

Regarding `Cn1nc(NS(C)(=O)=O)c2cccc(-c3cc4[nH]c(-c5ccccc5)nc4nc3[C@H](Cc3cc(F)cc(F)c3)NC(=O)Cn3nc(C(F)F)c4c3C(F)(F)[C@@H]3C[C@H]43)c21` [Example 95, 2-((3bS,4aR)-3-(difluoromethyl)-5,5-difluoro-3b,4,4a,5-tetrahydro-1H-cyclopropa[3,4]cyclopenta[1,2-c]pyrazol-1-yl)-N—((S)-2-(3,5-difluorophenyl)-1-(6-(1-methyl-3-(methylsulfonamido)-1H-indazol-7-yl)-2-phenyl-1H-imidazo[4,5-b]pyridin-5-yl)ethyl)acetamide], the pEC50 was 7.17.

`Cn1nc(NS(C)(=O)=O)c2c(Cl)ccc(-c3cc4[nH]c(C5CC5)nc4nc3[C@H](Cc3cc(F)cc(F)c3)NC(=O)Cn3nc(C(F)(F)F)c4c3C(F)(F)[C@@H]3C[C@H]43)c21` [Example 96, N—((S)-1-(6-(4-chloro-1-methyl-3-(methylsulfonamido)-1H-indazol-7-yl)-2-cyclopropyl-1H-imidazo[4,5-b]pyridin-5-yl)-2-(3,5-difluorophenyl)ethyl)-2-((3bS,4aR)-5,5-difluoro-3-(trifluoromethyl)-3b,4,4a,5-tetrahydro-1H-cyclopropa[3,4]cyclopenta[1,2-c]pyrazol-1-yl)acetamide] gave a pEC50 of 8.41.

The molecule `Cn1nc(NS(C)(=O)=O)c2c(Cl)ccc(-c3cc4[nH]c(C5CC5)nc4nc3[C@H](Cc3cc(F)cc(F)c3)NC(=O)Cn3nc(C(F)F)c4c3C(F)(F)[C@@H]3C[C@H]43)c21` [Example 97, N—((S)-1-(6-(4-chloro-1-methyl-3-(methylsulfonamido)-1H-indazol-7-yl)-2-cyclopropyl-1H-imidazo[4,5-b]pyridin-5-yl)-2-(3,5-difluorophenyl)ethyl)-2-((3bS,4aR)-3-(difluoromethyl)-5,5-difluoro-3b,4,4a,5-tetrahydro-1H-cyclopropa[3,4]cyclopenta[1,2-c]pyrazol-1-yl)acetamide] gave a pEC50 of 8.51.

Source of the values: US12077537B2 (Gilead Sciences, Inc., priority 2020, dated 2024).
